Test results taken from ChEMBL document CHEMBL5528002, “Identification of selective 5-LOX and FLAP inhibitors as novel anti-inflammatory agents by ligand-based virtual screening” (Eur J Med Chem, 2024).
Activity calls are given as the source filed them. No cut-off for these calls is given here.

Experiments:
Macrophage cell line [1] = assay: Effect on lipid mediator formation in human M1-like phenotype MDM cells by measuring 15-HEPE formation at 10 uM pre-incubated for 15 mins followed by SACM stimulation and measured after 90 mins by UPLC-MS/MS analysis relative to control; assay type: functional; conditions: time 105 min, 1.75 h
Macrophage cell line [2] = assay: Effect on lipid mediator formation in human M2-like phenotype MDM cells by measuring 5S,6R-diHETE formation at 10 uM pre-incubated for 15 mins followed by SACM stimulation and measured after 90 mins by UPLC-MS/MS analysis (reference value: 206 +/- 47 pg/ml); assay type: functional; conditions: time 105 min, 1.75 h
Macrophage cell line [3] = assay: Effect on lipid mediator formation in human M2-like phenotype MDM cells by measuring MaR1 formation at 10 uM pre-incubated for 15 mins followed by SACM stimulation and measured after 90 mins by UPLC-MS/MS analysis (reference value: 76 +/- 18 pg/ml); assay type: functional; conditions: time 105 min, 1.75 h
Macrophage cell line [4] = assay: Effect on lipid mediator formation in human M1-like phenotype MDM cells by measuring 12-HEPE formation at 10 uM pre-incubated for 15 mins followed by SACM stimulation and measured after 90 mins by UPLC-MS/MS analysis relative to control; assay type: functional; conditions: time 105 min, 1.75 h
Macrophage cell line [5] = assay: Effect on lipid mediator formation in human M2-like phenotype MDM cells by measuring 5-HETE formation at 10 uM pre-incubated for 15 mins followed by SACM stimulation and measured after 90 mins by UPLC-MS/MS analysis (reference value: 4812 +/- 561 pg/ml); assay type: functional; conditions: time 105 min, 1.75 h
Macrophage cell line [6] = assay: Effect on lipid mediator formation in human M1-like phenotype MDM cells by measuring 14-HDHA formation at 10 uM pre-incubated for 15 mins followed by SACM stimulation and measured after 90 mins by UPLC-MS/MS analysis relative to control; assay type: functional; conditions: time 105 min, 1.75 h
Macrophage cell line [7] = assay: Effect on lipid mediator formation in human M2-like phenotype MDM cells by measuring 5,15-diHETE formation at 10 uM pre-incubated for 15 mins followed by SACM stimulation and measured after 90 mins by UPLC-MS/MS analysis (reference value: 1231 +/- 356 pg/ml); assay type: functional; conditions: time 105 min, 1.75 h
Macrophage cell line [8] = assay: Effect on lipid mediator formation in human M2-like phenotype MDM cells by measuring 15-HETE formation at 10 uM pre-incubated for 15 mins followed by SACM stimulation and measured after 90 mins by UPLC-MS/MS analysis (reference value: 18426 +/- 5001 pg/ml); assay type: functional; conditions: time 105 min, 1.75 h
Macrophage cell line [9] = assay: Effect on lipid mediator formation in human M2-like phenotype MDM cells by measuring 12-HEPE formation at 10 uM pre-incubated for 15 mins followed by SACM stimulation and measured after 90 mins by UPLC-MS/MS analysis (reference value: 361 +/- 75 pg/ml); assay type: functional; conditions: time 105 min, 1.75 h
Macrophage cell line [10] = assay: Effect on lipid mediator formation in human M1-like phenotype MDM cells by measuring t-LTB4 formation at 10 uM pre-incubated for 15 mins followed by SACM stimulation and measured after 90 mins by UPLC-MS/MS analysis relative to control; assay type: functional; conditions: time 105 min, 1.75 h
Macrophage cell line [11] = assay: Effect on lipid mediator formation in human M2-like phenotype MDM cells by measuring MaR2 formation at 10 uM pre-incubated for 15 mins followed by SACM stimulation and measured after 90 mins by UPLC-MS/MS analysis (reference value: 16 +/- 1 pg/ml); assay type: functional; conditions: time 105 min, 1.75 h
Neutrophil = assay: Inhibition of ROS production in PMA-induced human Neutrophil cells at 1 uM incubated for 10 mins by DCFH-DA dye based fluorometric assay; assay type: functional, cell-based
Macrophage cell line [12] = assay: Effect on lipid mediator formation in human M1-like phenotype MDM cells by measuring 17-HDHA formation at 10 uM pre-incubated for 15 mins followed by SACM stimulation and measured after 90 mins by UPLC-MS/MS analysis relative to control; assay type: functional; conditions: time 105 min, 1.75 h
Macrophage cell line [13] = assay: Effect on lipid mediator formation in human M2-like phenotype MDM cells by measuring RvD1 formation at 10 uM pre-incubated for 15 mins followed by SACM stimulation and measured after 90 mins by UPLC-MS/MS analysis relative to control; assay type: functional; conditions: time 105 min, 1.75 h
Macrophage cell line [14] = assay: Effect on lipid mediator formation in human M1-like phenotype MDM cells by measuring EPA formation at 10 uM pre-incubated for 15 mins followed by SACM stimulation and measured after 90 mins by UPLC-MS/MS analysis (reference value: 20261 +/- 1404 pg/ml); assay type: functional; conditions: time 105 min, 1.75 h
Macrophage cell line [15] = assay: Effect on lipid mediator formation in human M1-like phenotype MDM cells by measuring 14-HDHA formation at 10 uM pre-incubated for 15 mins followed by SACM stimulation and measured after 90 mins by UPLC-MS/MS analysis (reference value: 100 +/- 21 pg/ml); assay type: functional; conditions: time 105 min, 1.75 h
[16] = molecular target: T1, Polyunsaturated fatty acid 5-lipoxygenase (Homo sapiens, UniProt P09917); assay: Inhibition of 5-LOX in human Neutrophil preincubated with compound for 15 mins followed by A23187 addition measured after 10 mins by RP-HPLC analysis; assay type: cell-based
T1 sequence (P09917 whole entry): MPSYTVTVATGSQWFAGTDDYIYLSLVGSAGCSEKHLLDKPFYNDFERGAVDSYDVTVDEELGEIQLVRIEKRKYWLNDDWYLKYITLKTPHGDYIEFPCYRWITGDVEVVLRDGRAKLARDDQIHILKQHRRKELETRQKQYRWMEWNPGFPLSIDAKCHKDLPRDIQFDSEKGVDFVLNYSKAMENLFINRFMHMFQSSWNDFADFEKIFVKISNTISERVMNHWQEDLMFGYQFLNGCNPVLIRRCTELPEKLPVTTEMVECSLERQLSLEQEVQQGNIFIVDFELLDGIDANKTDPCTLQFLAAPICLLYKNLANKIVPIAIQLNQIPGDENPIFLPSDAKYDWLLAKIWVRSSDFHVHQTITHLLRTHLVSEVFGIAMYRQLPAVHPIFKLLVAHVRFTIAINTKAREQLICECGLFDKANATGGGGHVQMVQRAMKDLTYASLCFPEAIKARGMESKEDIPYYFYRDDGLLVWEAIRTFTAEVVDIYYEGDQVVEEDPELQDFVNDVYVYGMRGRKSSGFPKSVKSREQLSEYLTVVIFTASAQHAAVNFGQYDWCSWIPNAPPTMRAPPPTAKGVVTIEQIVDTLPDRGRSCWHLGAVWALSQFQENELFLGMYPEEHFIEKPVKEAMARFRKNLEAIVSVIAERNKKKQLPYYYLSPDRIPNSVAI

Macrophage cell line [17] = assay: Effect on lipid mediator formation in human M2-like phenotype MDM cells by measuring PDX1 formation at 10 uM pre-incubated for 15 mins followed by SACM stimulation and measured after 90 mins by UPLC-MS/MS analysis (reference value: 13 +/- 3 pg/ml); assay type: functional; conditions: time 105 min, 1.75 h
Macrophage cell line [18] = assay: Effect on lipid mediator formation in human M2-like phenotype MDM cells by measuring 4-HDHA formation at 10 uM pre-incubated for 15 mins followed by SACM stimulation and measured after 90 mins by UPLC-MS/MS analysis (reference value: 58 +/- 8 pg/ml); assay type: functional; conditions: time 105 min, 1.75 h
Macrophage cell line [19] = assay: Effect on lipid mediator formation in human M2-like phenotype MDM cells by measuring PGE2 formation at 10 uM pre-incubated for 15 mins followed by SACM stimulation and measured after 90 mins by UPLC-MS/MS analysis relative to control; assay type: functional; conditions: time 105 min, 1.75 h

For `Oc1ccc(CCC2CCC(c3ccc(O)cc3)CO2)cc1` (stereo not given), which Activity (Macrophage cell line [1]) is on record?
The Activity was 97%.

And the Activity (Macrophage cell line [2])?
The Activity was 14 pg/mL.

And the Activity (Macrophage cell line [3])?
Its Activity is 81 pg/mL.

And the Activity (Macrophage cell line [4])?
The Activity was 90%.

What about the Activity (Macrophage cell line [5]) of the same molecule?
The Activity was 1181 pg/mL.

What about the Activity (Macrophage cell line [6]) of the same molecule?
The Activity was 89%.

And the Activity (Macrophage cell line [7])?
Its Activity is 751 pg/mL.

And the Activity (Macrophage cell line [8])?
The Activity was 26605 pg/mL.

And the Activity (Macrophage cell line [9])?
Its Activity is 462 pg/mL.

What about the Activity (Macrophage cell line [10]) of the same molecule?
Its Activity is 8%.

What about the Activity (Macrophage cell line [11]) of the same molecule?
Its Activity is 31 pg/mL.

And the inhibition (Neutrophil)?
Its inhibition is “inactive”.

What about the Activity (Macrophage cell line [12]) of the same molecule?
Its Activity is 135%.

What about the Activity (Macrophage cell line [13]) of the same molecule?
Its Activity is 82%.

And the Activity (Macrophage cell line [14])?
Its Activity is 22962 pg/mL.

What about the Activity (Macrophage cell line [15]) of the same molecule?
The Activity was 88 pg/mL.

What about the IC50 [16] of the same molecule?
Its IC50 is 1.1 µM.

What about the Activity (Macrophage cell line [17]) of the same molecule?
The Activity was 15 pg/mL.

And the Activity (Macrophage cell line [18])?
The Activity was 58 pg/mL.

And the Activity (Macrophage cell line [19])?
Its Activity is 147%.

What does the source list for `COc1ccc(C2=C/C(=C/c3ccc(O)cc3O)C(=O)O2)cc1`?
Activity (Macrophage cell line [1]): 98%; Activity (Macrophage cell line [2]): 8 pg/mL; Activity (Macrophage cell line [3]): 144 pg/mL; Activity (Macrophage cell line [4]): 92%; Activity (Macrophage cell line [5]): 450 pg/mL; Activity (Macrophage cell line [6]): 94%; Activity (Macrophage cell line [7]): 479 pg/mL; Activity (Macrophage cell line [8]): 25017 pg/mL; Activity (Macrophage cell line [9]): 520 pg/mL; Activity (Macrophage cell line [10]): 8%; Activity (Macrophage cell line [11]): 36 pg/mL; inhibition (Neutrophil): inactive; Activity (Macrophage cell line [12]): 106%; Activity (Macrophage cell line [13]): 114%; Activity (Macrophage cell line [14]): 27649 pg/mL; Activity (Macrophage cell line [15]): 93 pg/mL; IC50 [16]: 4.8 µM; Activity (Macrophage cell line [17]): 18 pg/mL; Activity (Macrophage cell line [18]): 49 pg/mL; Activity (Macrophage cell line [19]): 259%
